For this assay, the target named is T1, IRAK4 (Homo sapiens, UniProt Q9NWZ3).
T1 construct: knocking-in a HiBiT fusion tag into the C-terminal of the IRAK4 gene in 293T cells; host or cells: 293T cells, knock-in of HiBiT at the endogenous IRAK4 locus
T1 sequence (Q9NWZ3 1-460): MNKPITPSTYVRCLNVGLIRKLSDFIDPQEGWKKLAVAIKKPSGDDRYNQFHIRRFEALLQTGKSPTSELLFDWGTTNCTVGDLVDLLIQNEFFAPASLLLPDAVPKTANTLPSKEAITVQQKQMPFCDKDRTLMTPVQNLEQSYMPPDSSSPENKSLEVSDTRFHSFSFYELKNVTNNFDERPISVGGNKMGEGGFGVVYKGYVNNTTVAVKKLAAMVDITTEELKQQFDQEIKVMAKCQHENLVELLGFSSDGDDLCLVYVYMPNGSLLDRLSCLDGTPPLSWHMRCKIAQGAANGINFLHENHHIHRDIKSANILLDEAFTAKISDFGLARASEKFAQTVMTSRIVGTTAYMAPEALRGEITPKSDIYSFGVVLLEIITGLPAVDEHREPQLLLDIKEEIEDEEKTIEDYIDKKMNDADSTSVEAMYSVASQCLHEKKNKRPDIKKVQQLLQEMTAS
Put plainly: IRAK4 degradation assay using the HiBiT Method. It counts as cell-based. The note with it: 293T cells expressing HiBiT-tagged IRAK4; 6-hour incubation; Nano-Glo HiBiT Lytic Assay luminescence. In outline: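 HEK293T cells with HiBiT knocked into the IRAK4 C-terminus, 10,000 cells per well, treated with an 11-point half-log series […] in duplicate for 6 hours at 37° C., 5% CO2. Remaining IRAK4 quantified by Nano-Glo HiBiT lytic luminescence against DMSO controls.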

A value given as a limit tells only on which side of the number the result lay.

For `CC(C)Oc1cc2nc(C3CCN(CC(=O)N4CCC(c5ccc(NC6CCC(=O)NC6=O)cc5)CC4)CC3)cn2cc1NC(=O)c1ccncn1` (centres unmarked) [Example 53, N-[2-[1-[2-[4-[4-[(2,6-dioxo-3-piperidyl)amino]phenyl]-1-piperidyl]-2-oxo-ethyl]-4-piperidyl]-7-isopropoxy-imidazo[1,2-a]pyridin-6-yl]pyrimidine-4-carboxamide], the DC50 – broadly, the midpoint of the concentration-degradation curve – lay in the range of 100 to 500 nM.
On to `CC(C)Oc1cc2nc(C3CCN(CC(=O)N4CCC(c5ccc(NC6CCC(=O)NC6=O)cc5)CC4)CC3)cn2cc1NC(=O)c1cccc(C(F)(F)F)c1` (centres unmarked) [Example 54, N-[2-[1-[2-[4-[4-[(2,6-dioxo-3-piperidyl)amino]phenyl]-1-piperidyl]-2-oxo-ethyl]-4-piperidyl]-7-isopropoxy-imidazo[1,2-a]pyridin-6-yl]-3-(trifluoromethyl)benzamide], for which the DC50 was in the range of 100 to 500 nM.
The value for `CC(C)Oc1cc2nc(C3CCN(CC(=O)N4CCC(c5ccc(NC6CCC(=O)NC6=O)cc5)CC4)CC3)cn2cc1NC(=O)c1ccccn1` (centres unmarked) [Example 55, N-[2-[1-[2-[4-[4-[(2,6-dioxo-3-piperidyl)amino]phenyl]-1-piperidyl]-2-oxo-ethyl]-4-piperidyl]-7-isopropoxy-imidazo[1,2-a]pyridin-6-yl]pyridine-2-carboxamide] was 10 to 100 nM; that for `CC(C)Oc1cc2nc(C3CCN(CC(=O)N4CCC(c5ccc(NC6CCC(=O)NC6=O)cc5)CC4)CC3)cn2cc1NC(=O)c1ccccc1` (centres unmarked) [Example 56, N-[2-[1-[2-[4-[4-[(2,6-dioxo-3-piperidyl)amino]phenyl]-1-piperidyl]-2-oxo-ethyl]-4-piperidyl]-7-isopropoxy-imidazo[1,2-a]pyridin-6-yl]benzamide] was 100 to 500 nM.
In the case of `CC(C)Oc1cc2nc(C3CCN(CC(=O)N4CCC(c5ccc(NC6CCC(=O)NC6=O)cc5)CC4)CC3)cn2cc1NC(=O)c1cnn2cccnc12` (centres unmarked) [Example 57, N-(2-(1-(2-(4-(4-((2,6-dioxopiperidin-3-yl)amino)phenyl)piperidin-1-yl)-2-oxoethyl)piperidin-4-yl)-7-isopropoxyimidazo[1,2-a]pyridin-6-yl)pyrazolo[1,5-a]pyrimidine-3-carboxamide] it was less than 10 nM; in that of `Cc1cc(-c2nc(C(=O)Nc3cn4cc(C5CCN(CC(=O)N6CCC(c7ccc(NC8CCC(=O)NC8=O)cc7)CC6)CC5)nc4cc3OC(C)C)co2)ccn1` (centres unmarked) [Example 58, N-(2-(1-(2-(4-(4-((2,6-dioxopiperidin-3-yl)amino)phenyl)piperidin-1-yl)-2-oxoethyl)piperidin-4-yl)-7-isopropoxyimidazo[1,2-a]pyridin-6-yl)-2-(2-methylpyridin-4-yl)oxazole-4-carboxamide], 10 to 100 nM; in that of `CC(C)Oc1cc2nc(C3CCN(CC(=O)N4CCC(c5ccc(NC6CCC(=O)NC6=O)cc5)CC4)CC3)cn2cc1NC(=O)c1ccc(F)cc1F` (centres unmarked) [Example 59, N-(2-(1-(2-(4-(4-((2,6-dioxopiperidin-3-yl)amino)phenyl)piperidin-1-yl)-2-oxoethyl)piperidin-4-yl)-7-isopropoxyimidazo[1,2-a]pyridin-6-yl)-2,4-difluorobenzamide], 10 to 100 nM.
In turn, `CC(C)Oc1cc2nc(C3CCN(CC(=O)N4CCC(c5ccc(NC6CCC(=O)NC6=O)cc5)CC4)CC3)cn2cc1NC(=O)c1ccn(C)n1` (centres unmarked) [Example 60, N-[2-[1-[2-[4-[4-[(2,6-dioxo-3-piperidyl)amino]phenyl]-1-piperidyl]-2-oxo-ethyl]-4-piperidyl]-7-isopropoxy-imidazo[1,2-a]pyridin-6-yl]-1-methyl-pyrazole-3-carboxamide] returned a DC50 of 10 to 100 nM.
In turn, `CC(C)Oc1cc2nc(C3CCN(CC(=O)N4CCC(c5ccc(NC6CCC(=O)NC6=O)cc5)CC4)CC3)cn2cc1NC(=O)c1cccc(C(F)F)c1` (centres unmarked) [Example 61, 3-(difluoromethyl)-N-(2-(1-(2-(4-(4-((2,6-dioxopiperidin-3-yl)amino)phenyl)piperidin-1-yl)-2-oxoethyl)piperidin-4-yl)-7-isopropoxyimidazo[1,2-a]pyridin-6-yl)benzamide] came in with a half-maximal degradation concentration (DC50) of 10 to 100 nM.
The value for `CC(C)Oc1cc2nc(C3CCN(CCN4CCC(c5ccc(CN6CCC(=O)NC6=O)cc5)CC4)CC3)cn2cc1NC(=O)c1cccc(C(F)(F)F)n1` [Example 62, N-[2-[1-[2-[4-[4-[(2,4-dioxohexahydropyrimidin-1-yl)methyl]phenyl]-1-piperidyl]ethyl]-4-piperidyl]-7-isopropoxy-imidazo[1,2-a]pyridin-6-yl]-6-(trifluoromethyl)pyridine-2-carboxamide] was 100 to 500 nM; that for `CC(C)Oc1cc2nc(C3CCN(CCN4CCC(c5ccc(C6CCC(=O)NC6=O)cc5F)CC4)CC3)cn2cc1NC(=O)c1cccc(C(F)(F)F)n1` (centres unmarked) [Example 64, N-[2-[1-[2-[4-[4-(2,6-dioxo-3-piperidyl)-2-fluoro-phenyl]-1-piperidyl]ethyl]-4-piperidyl]-7-isopropoxy-imidazo[1,2-a]pyridin-6-yl]-6-(trifluoromethyl)pyridine-2-carboxamide] was 100 to 500 nM; that for `CC(C)Oc1cc2nc(C3CCN(CCN4CCN(c5ccc(C6CCC(=O)NC6=O)cc5)CC4)CC3)cn2cc1NC(=O)c1cccc(C(F)(F)F)n1` (centres unmarked) [Example 65, N-[2-[1-[2-[4-[4-(2,6-dioxo-3-piperidyl)phenyl]piperazin-1-yl]ethyl]-4-piperidyl]-7-isopropoxy-imidazo[1,2-a]pyridin-6-yl]-6-(trifluoromethyl)pyridine-2-carboxamide] was 10 to 100 nM.
The value for `CC(C)Oc1cc2nc(C3CCN(CCN4CCC(c5ccc(NC6CCC(=O)NC6=O)cc5)CC4)CC3)cn2cc1NC(=O)c1cccc(C(F)(F)F)n1` (centres unmarked) [Example 66, N-[2-[1-[2-[4-[4-[(2,6-dioxo-3-piperidyl)amino]phenyl]-1-piperidyl]ethyl]-4-piperidyl]-7-isopropoxy-imidazo[1,2-a]pyridin-6-yl]-6-(trifluoromethyl)pyridine-2-carboxamide] was 100 to 500 nM; that for `CC(C)Oc1cc2nc(C3CCN(CCN4CCC(c5ccc(NC6CCC(=O)NC6=O)cc5F)CC4)CC3)cn2cc1NC(=O)c1cccc(C(F)(F)F)n1` (centres unmarked) [Example 67, N-[2-[1-[2-[4-[4-[(2,6-dioxo-3-piperidyl)amino]-2-fluoro-phenyl]-1-piperidyl]ethyl]-4-piperidyl]-7-isopropoxy-imidazo[1,2-a]pyridin-6-yl]-6-(trifluoromethyl)pyridine-2-carboxamide] was 100 to 500 nM.
`CC(C)Oc1cc2nc(C3CCN(CCc4ccc(NC5CCC(=O)NC5=O)cc4)CC3)cn2cc1NC(=O)c1cccc(C(F)(F)F)n1` (centres unmarked) [Example 68, N-[2-[1-[2-[4-[(2,6-dioxo-3-piperidyl)amino]phenyl]ethyl]-4-piperidyl]-7-isopropoxy-imidazo[1,2-a]pyridin-6-yl]-6-(trifluoromethyl)pyridine-2-carboxamide] returned a DC50 of 10 to 100 nM.
The value for `CC(C)Oc1cc2nc(C3CCN(CCCCc4ccc(NC5CCC(=O)NC5=O)cc4)CC3)cn2cc1NC(=O)c1cccc(C(F)(F)F)n1` (centres unmarked) [Example 69, N-[2-[1-[4-[4-[(2,6-dioxo-3-piperidyl)amino]phenyl]butyl]-4-piperidyl]-7-isopropoxy-imidazo[1,2-a]pyridin-6-yl]-6-(trifluoromethyl)pyridine-2-carboxamide] was 100 to 500 nM.
The value for `CC(C)Oc1cc2nc(C3CCN(CCCCCCc4ccc(NC5CCC(=O)NC5=O)cc4)CC3)cn2cc1NC(=O)c1cccc(C(F)(F)F)n1` (centres unmarked) [Example 70, N-[2-[1-[6-[4-[(2,6-dioxo-3-piperidyl)amino]phenyl]hexyl]-4-piperidyl]-7-isopropoxy-imidazo[1,2-a]pyridin-6-yl]-6-(trifluoromethyl)pyridine-2-carboxamide] was 100 to 500 nM.
In the case of `CC(C)Oc1cc2nc(CCCNC(=O)CN3CCC(c4ccc(NC5CCC(=O)NC5=O)cc4)CC3)cn2cc1NC(=O)c1cccc(C(F)(F)F)n1` (centres unmarked) [Example 71, N-[2-[3-[[2-[4-[4-[(2,6-dioxo-3-piperidyl)amino]phenyl]-1-piperidyl]acetyl]amino]propyl]-7-isopropoxy-imidazo[1,2-a]pyridin-6-yl]-6-(trifluoromethyl)pyridine-2-carboxamide] it was 100 to 500 nM.
With `CC(C)Oc1cc2nc(CCCCCCN3CCC(c4ccc(NC5CCC(=O)NC5=O)cc4)CC3)cn2cc1NC(=O)c1cccc(C(F)(F)F)n1` (centres unmarked) [Example 72, N-[2-[6-[4-[4-[(2,6-dioxo-3-piperidyl)amino]phenyl]-1-piperidyl]hexyl]-7-isopropoxy-imidazo[1,2-a]pyridin-6-yl]-6-(trifluoromethyl)pyridine-2-carboxamide], the DC50 was in the range of 100 to 500 nM.
In the case of `CC(C)Oc1cc2nc([C@H](Cc3ccccc3)NC(=O)CN3CCC(c4ccc(C5CCC(=O)NC5=O)cc4)CC3)cn2cc1NC(=O)c1cccc(C(F)(F)F)n1` (stereo partly drawn) [Example 73, N-[2-[(1S)-1-[[2-[4-[4-(2,6-dioxo-3-piperidyl)phenyl]-1-piperidyl]acetyl]amino]-2-phenyl-ethyl]-7-isopropoxy-imidazo[1,2-a]pyridin-6-yl]-6-(trifluoromethyl)pyridine-2-carboxamide] it was 100 to 500 nM.

(Values after patent publication US20250018046A1, “COMPOUNDS FOR TARGETING DEGRADATION OF IRAK4 PROTEINS” (BIOGEN MA INC, priority 2021, published 2025).)
